These results are taken from ChEMBL document CHEMBL2074161, “Substrate upregulation of the human small intestinal peptide transporter, hPepT1” (J Physiol, 1998).

Peptide text beside a SMILES is read from it.

The target of this assay is T1, Solute carrier family 15 member 1 (Homo sapiens) (UniProt P46059).
T1 sequence (whole entry): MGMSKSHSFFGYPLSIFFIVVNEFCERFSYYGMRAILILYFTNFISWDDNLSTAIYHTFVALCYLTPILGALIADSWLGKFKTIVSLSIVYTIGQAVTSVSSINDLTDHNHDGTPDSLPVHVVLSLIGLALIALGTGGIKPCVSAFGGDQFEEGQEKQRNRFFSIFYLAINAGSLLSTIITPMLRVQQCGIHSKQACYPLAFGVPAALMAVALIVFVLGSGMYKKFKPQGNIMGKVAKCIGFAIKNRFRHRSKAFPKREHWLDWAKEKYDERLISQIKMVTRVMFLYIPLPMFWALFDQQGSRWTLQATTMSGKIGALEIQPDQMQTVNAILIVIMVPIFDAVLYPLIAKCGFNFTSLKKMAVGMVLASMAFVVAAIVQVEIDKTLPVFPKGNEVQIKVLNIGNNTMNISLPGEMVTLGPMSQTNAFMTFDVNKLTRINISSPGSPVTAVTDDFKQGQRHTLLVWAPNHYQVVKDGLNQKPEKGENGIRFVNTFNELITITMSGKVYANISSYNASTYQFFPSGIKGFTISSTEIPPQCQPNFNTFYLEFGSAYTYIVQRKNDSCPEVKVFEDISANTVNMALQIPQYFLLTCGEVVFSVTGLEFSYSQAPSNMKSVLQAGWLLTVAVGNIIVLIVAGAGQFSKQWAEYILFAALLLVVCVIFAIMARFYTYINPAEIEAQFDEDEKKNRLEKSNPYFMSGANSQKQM
Kind of assay: TP_TRANSPORTER: upregulation of mRNA and protein in Caco-2 cells. Type of assay: functional, cell-based.

With `NCC(=O)N[C@@H](CCC(N)=O)C(=O)O` (H-Gly-Gln-OH), the Activity entry was “inducer [+]”.
